From US11912718B2, “Solid forms of a thienopyrimidinedione ACC inhibitor and methods for production thereof” (Gilead Apollo, LLC, priority 2016, dated 2024)

Assays:
[1] = Study B: multiple oral dose pharmacokinetics, 10 days; format: in vivo, human; settings: for AUC(0-inf) / Cmax / half-life / Tmax / AUC(0-t): human, in vivo, oral
Protocol: Study B (five (5) cohorts of 8 subjects (6 active and 2 placebo)) evaluated 50 mg twice daily (BID) (100 mg daily), 100 mg once daily (QD) (100 mg daily), 100 mg BID (200 mg daily), 200 mg QD (200 mg daily), or 150 mg QD (150 mg daily), or matching placebo. Subjects received multiple oral doses of Compound 1 or placebo for 9 consecutive days, with a single oral dose of Compound 1 or placebo on the morning of Day 10. Doses were administered approximately 30 minutes after meals.
Table 13 summarizes PK parameters of Study B after 10 days. The reported factors may vary up to about 2%.

[2] = Study A: single oral dose pharmacokinetics in healthy subjects; format: in vivo, human; settings: for AUC(0-t) / Tmax / AUC(0-inf) / Cmax / half-life: human, plasma, fasted; for AUC(0-t): po; for AUC(0-t) / AUC(0-inf) / Cmax / half-life: mean ± SD; for Tmax: Mean (Min, Max)
Protocol: Study A evaluated the safety and tolerability of 30, 80, 200, 500, 800, and 1000 mg in the fasted state and 200 mg following a high fat meal (fed state) to cohorts of 8 healthy subjects (6 active and 2 placebo control per group).
Table 12 summarizes PK parameters (mean) under fasted conditions of Study A. The reported factors may vary up to about 2%.

[3] = 100 mg, 100 mg BID, Day 1, value available for one subject

AUC(0-inf) ([1]; 50 mg, 50 mg BID, Day 1): 178 ± 41 ng·h/mL
Cmax ([1]; 50 mg, 50 mg BID, Day 1): 41 ± 14 ng/mL
half-life ([1]; 50 mg, 50 mg BID, Day 1): 3.5 ± 1.6 h
Tmax ([1]; 50 mg, 50 mg BID, Day 1, Mean (Min, Max)): 2.4 h
AUC(0-t) ([1]; 50 mg, 50 mg BID, Day 1, read-out: AUC0-12): 143 ± 29 ng·h/mL
AUC(0-t) ([1]; 50 mg, 50 mg BID, Day 1, read-out: AUC0-t): 143 ± 29 ng·h/mL
half-life ([1]; 50 mg, 50 mg BID, Day 10): 10.3 ± 6.7 h
AUC(0-t) ([1]; 50 mg, 50 mg BID, Day 10, read-out: AUC0-t): 403 ± 104 ng·h/mL
Cmax ([1]; 50 mg, 50 mg BID, Day 10 steady state): 49 ± 15 ng/mL
Tmax ([1]; 50 mg, 50 mg BID, Day 10 steady state, Mean (Min, Max)): 4.5 h
Cmax ([1]; 100 mg, 100 mg BID, Day 1): 61.6 ± 15 ng/mL
Tmax ([1]; 100 mg, 100 mg BID, Day 1, Mean (Min, Max)): 5.2 h
AUC(0-t) ([1]; 100 mg, 100 mg BID, Day 1, read-out: AUC0-12): 345 ± 78 ng·h/mL
AUC(0-t) ([1]; 100 mg, 100 mg BID, Day 1, read-out: AUC0-t): 345 ± 77 ng·h/mL
AUC(0-inf) [1, 3]: 671 ng·h/mL
half-life [1, 3]: 5.6 h
half-life ([1]; 100 mg, 100 mg BID, Day 10): 6.8 ± 1.6 h
AUC(0-t) ([1]; 100 mg, 100 mg BID, Day 10, read-out: AUC0-t): 1120 ± 362 ng·h/mL
Cmax ([1]; 100 mg, 100 mg BID, Day 10 steady state): 121 ± 56 ng/mL
Tmax ([1]; 100 mg, 100 mg BID, Day 10 steady state, Mean (Min, Max)): 5.2 h
AUC(0-inf) ([1]; 100 mg, 100 mg QD, Day 1): 278 ± 110 ng·h/mL
Cmax ([1]; 100 mg, 100 mg QD, Day 1): 65 ± 32 ng/mL
half-life ([1]; 100 mg, 100 mg QD, Day 1): 4.3 ± 0.7 h
AUC(0-t) ([1]; 100 mg, 100 mg QD, Day 1, read-out: AUC0-12): 234 ± 86 ng·h/mL
AUC(0-t) ([1]; 100 mg, 100 mg QD, Day 1, read-out: AUC0-t): 268 ± 96 ng·h/mL
half-life ([1]; 100 mg, 100 mg QD, Day 10): 7.9 ± 4.5 h
AUC(0-t) ([1]; 100 mg, 100 mg QD, Day 10, read-out: AUC0-12): 285 ± 115 ng·h/mL
AUC(0-t) ([1]; 100 mg, 100 mg QD, Day 10, read-out: AUC0-t): 400 ± 181 ng·h/mL
Cmax ([1]; 100 mg, 100 mg QD, Day 10 steady state): 54 ± 22 ng/mL
Tmax ([1]; 100 mg, 100 mg QD, Day 10 steady state, Mean (Min, Max)): 4.5 h
AUC(0-inf) ([1]; 150 mg, 150 mg QD, Day 1): 587 ± 254 ng·h/mL
Cmax ([1]; 150 mg, 150 mg QD, Day 1): 94 ± 40 ng/mL
half-life ([1]; 150 mg, 150 mg QD, Day 1): 3.9 ± 1.1 h
Tmax ([1]; 150 mg, 150 mg QD, Day 1, Mean (Min, Max)): 3.3 h
AUC(0-t) ([1]; 150 mg, 150 mg QD, Day 1, read-out: AUC0-12): 489 ± 218 ng·h/mL
AUC(0-t) ([1]; 150 mg, 150 mg QD, Day 1, read-out: AUC0-t): 572 ± 247 ng·h/mL
half-life ([1]; 150 mg, 150 mg QD, Day 10): 6.6 ± 2.8 h
AUC(0-t) ([1]; 150 mg, 150 mg QD, Day 10, read-out: AUC0-12): 637 ± 246 ng·h/mL
AUC(0-t) ([1]; 150 mg, 150 mg QD, Day 10, read-out: AUC0-t): 933 ± 424 ng·h/mL
Cmax ([1]; 150 mg, 150 mg QD, Day 10 steady state): 111 ± 52 ng/mL
Tmax ([1]; 150 mg, 150 mg QD, Day 10 steady state, Mean (Min, Max)): 6.5 h
AUC(0-inf) ([1]; 200 mg, 200 mg QD, Day 1): 979 ± 286 ng·h/mL
Cmax ([1]; 200 mg, 200 mg QD, Day 1): 152 ± 68 ng/mL
half-life ([1]; 200 mg, 200 mg QD, Day 1): 5.9 ± 3.6 h
Tmax ([1]; 200 mg, 200 mg QD, Day 1, Mean (Min, Max)): 4.7 h
AUC(0-t) ([1]; 200 mg, 200 mg QD, Day 1, read-out: AUC0-12): 707 ± 191 ng·h/mL
AUC(0-t) ([1]; 200 mg, 200 mg QD, Day 1, read-out: AUC0-t): 868 ± 220 ng·h/mL
half-life ([1]; 200 mg, 200 mg QD, Day 10): 5.9 ± 1 h
AUC(0-t) ([1]; 200 mg, 200 mg QD, Day 10, read-out: AUC0-12): 1220 ± 362 ng·h/mL
AUC(0-t) ([1]; 200 mg, 200 mg QD, Day 10, read-out: AUC0-t): 2050 ± 819 ng·h/mL
Cmax ([1]; 200 mg, 200 mg QD, Day 10 steady state): 198 ± 87 ng/mL
Tmax ([1]; 200 mg, 200 mg QD, Day 10 steady state, Mean (Min, Max)): 3.7 h
change of maximal exposure (Cmax) from Day 1 to Day 10 ([1]; multiple dosing, all regimens): generally increased
increase of overall exposure (AUCt) on Day 10 compared to Day 1 ([1]; multiple dosing, all regimens): 1.5-3.0 fold
range of mean t1/2 independent of dose or regimen on each study day ([1]; multiple dosing, all regimens): ≤ 2 fold
maximum plasma exposure (Cmax) lower under fed compared to fasted conditions ([2]; 200 mg, fed (high fat meal) versus fasted): approximately 68%
mean t1/2, CL/F, Vz/F and median tmax, fed versus fasted ([2]; 200 mg, fed and fasted conditions): comparable
AUC(0-t) ([2]; 30 mg, single oral dose 30 mg, read-out: AUC0-t): 176 ± 104 ng·h/mL
AUC(0-t) ([2]; 80 mg, single oral dose 80 mg, read-out: AUC0-12): 395 ± 198 ng·h/mL
AUC(0-t) ([2]; 80 mg, single oral dose 80 mg, read-out: AUC0-t): 363 ± 215 ng·h/mL
AUC(0-t) ([2]; 200 mg, single oral dose 200 mg, read-out: AUC0-12): 1000 ± 545 ng·h/mL
AUC(0-t) ([2]; 200 mg, single oral dose 200 mg, read-out: AUC0-t): 1210 ± 536 ng·h/mL
AUC(0-t) ([2]; 500 mg, single oral dose 500 mg, read-out: AUC0-12): 1240 ± 547 ng·h/mL
AUC(0-t) ([2]; 500 mg, single oral dose 500 mg, read-out: AUC0-t): 2930 ± 2440 ng·h/mL
AUC(0-t) ([2]; 800 mg, single oral dose 800 mg, read-out: AUC0-t): 6420 ± 3180 ng·h/mL
AUC(0-t) ([2]; 1000 mg, single oral dose 1000 mg, read-out: AUC0-t): 17400 ± 8400 ng·h/mL
Tmax ([2]; single oral dose 30 mg): 1.3 h
AUC(0-inf) ([2]; single oral dose 30 mg): 179 ± 115 ng·h/mL
Cmax ([2]; single oral dose 30 mg): 80 ± 66 ng/mL
half-life ([2]; single oral dose 30 mg): 4.5 ± 1.6 h
Tmax ([2]; single oral dose 80 mg): 1.8 h
AUC(0-inf) ([2]; single oral dose 80 mg): 402 ± 225 ng·h/mL
Cmax ([2]; single oral dose 80 mg): 101 ± 48 ng/mL
half-life ([2]; single oral dose 80 mg): 7 ± 2.8 h
Tmax ([2]; single oral dose 200 mg): 1.9 h
AUC(0-inf) ([2]; single oral dose 200 mg): 1250 ± 616 ng·h/mL
Cmax ([2]; single oral dose 200 mg): 416 ± 22 ng/mL
half-life ([2]; single oral dose 200 mg): 12 ± 1.4 h
Tmax ([2]; single oral dose 500 mg): 1.9 h
AUC(0-inf) ([2]; single oral dose 500 mg): 2960 ± 2460 ng·h/mL
Cmax ([2]; single oral dose 500 mg): 1110 ± 1150 ng/mL
half-life ([2]; single oral dose 500 mg): 10.2 ± 2.1 h
Tmax ([2]; single oral dose 800 mg): 2.1 h
AUC(0-inf) ([2]; single oral dose 800 mg): 6460 ± 3190 ng·h/mL
Cmax ([2]; single oral dose 800 mg): 2570 ± 1880 ng/mL
half-life ([2]; single oral dose 800 mg): 8.2 ± 3.3 h
Tmax ([2]; single oral dose 1000 mg): 2.4 h
AUC(0-inf) ([2]; single oral dose 1000 mg): 17500 ± 8410 ng·h/mL
Cmax ([2]; single oral dose 1000 mg): 8380 ± 3210 ng/mL
half-life ([2]; single oral dose 1000 mg): 9.5 ± 2.6 h
Structure (SMILES): COc1ccccc1[C@H](Cn1c(=O)n(C(C)(C)C(=O)O)c(=O)c2c(C)c(-c3ncco3)sc21)OC1CCOCC1 [Compound 1, (R)-2-(1-(2-(2-methoxyphenyl)-2-((tetrahydro-2H-pyran-4-yl)oxy)ethyl)-5-methyl-6-(oxazol-2-yl)-2,4-dioxo-1,2-dihydrothieno[2,3-d]pyrimidin-3(4H)-yl)-2-methylpropanoic acid]
